Data published in EPA's ToxRefDB 2.

Tests used:
rat [1] = conditions: Subchronic oral toxicity in rodents, sprague dawley, Gavage/Intubation, dose end: 13 week, group: systemic
mouse [2] = conditions: Subchronic dermal toxicity, cd1, Topical, dose end: 49 day, group: systemic
rat [3] = conditions: Sub-acute repeat dose toxicity, sprague dawley, Oral, Gavage/Intubation, dose end: 28 day, group: systemic
rat [4] = conditions: Prenatal developmental toxicity study, sprague dawley, Oral, Gavage/Intubation, dose end: 15 GD
rat [5] = conditions: Combined chronic toxicity/carcinogenicity, fischer, Oral, Water, dose end: 105 week, group: systemic
mouse [6] = conditions: Combined chronic toxicity/carcinogenicity; b6c3f1; Oral; Water; dose end: 105 week; group: systemic; systemic / in life observation / body weight / body weight
rat [7] = conditions: Subchronic oral toxicity in rodents, fischer, Water, dose end: 14 week, group: systemic
rat [8] = conditions: Sub-acute repeat dose toxicity, fischer, Oral, Water, dose end: 14 day, group: systemic
mouse [9] = conditions: Subchronic oral toxicity in rodents, b6c3f1, Water, dose end: 13 week
mouse [10] = conditions: Sub-acute repeat dose toxicity, b6c3f1, Oral, Water, dose end: 14 day, group: systemic
rat [11] = conditions: Prenatal developmental toxicity study, sprague dawley, Dermal, Topical, dose end: 15 GD, group: maternal
rat [12] = conditions: Subchronic oral toxicity in rodents, other, Feed, dose end: 13 week, group: systemic
[13] = systemic / organ weight / kidney / relative to body weight + systemic / organ weight / liver / absolute + systemic / organ weight / liver / …
[14] = systemic / in life observation / clinical signs / erythema + systemic / pathology microscopic / skin / edema
[15] = systemic / in life observation / clinical signs / erythema + systemic / pathology microscopic / skin / edema + systemic / in life …
[16] = systemic / clinical chemistry / phosphorus / phosphorus + systemic / clinical chemistry / bilirubin / total bilirubin + systemic / pathology…
[17] = systemic / pathology gross / uterus / fluid contents
[18] = group: developmental, systemic / in life observation / body weight / fetal weight
[19] = group: maternal, systemic / in life observation / clinical signs / ataxia + systemic / in life observation / clinical signs / lethargy + systemic / in life …
[20] = systemic / pathology microscopic / kidney / hyperplasia + systemic / pathology microscopic / kidney / nephropathy + systemic / in life …
[21] = systemic / clinical chemistry / bile acids / bile acids + systemic / in life observation / body weight / body weight + systemic / in life …
[22] = systemic / in life observation / body weight / body weight + systemic / in life observation / body weight / body weight gain + systemic / …
[23] = group: maternal, reproductive / reproductive performance / estrous cycle / length
[24] = group: systemic, systemic / in life observation / clinical signs / dehydration + systemic / in life observation / clinical signs / feces, discoloration + …
[25] = group: systemic, systemic / in life observation / water consumption / water consumption
[26] = systemic / in life observation / body weight / body weight gain + systemic / organ weight / liver / absolute + systemic / organ weight / …
[27] = systemic / in life observation / body weight / body weight + systemic / in life observation / clinical signs / [other] + systemic / in life …
[28] = systemic / in life observation / body weight / body weight + systemic / in life observation / clinical signs / red or crusty deposits around…
[29] = systemic / hematology / erythrocyte (rbc) count differential / erythrocyte (rbc) + systemic / in life observation / body weight / body …
[30] = systemic / urinalysis / ketones / ketones

Compound: Cc1cc(O)cc(C)c1Cl [4-Chloro-3,5-dimethylphenol]
- LEL (rat [1]; systemic / in life observation / body weight / body weight gain + systemic / in life observation / clinical signs / salivation + systemic / …): 1250 mg/kg/day
- NEL (rat [1]; systemic / in life observation / clinical signs / salivation): 25 mg/kg/day
- LOAEL (rat [1]; [13]): 2500 mg/kg/day
- NOAEL (rat [1]; [13]): 1250 mg/kg/day
- LOAEL (mouse [2]; [14]): 213 mg/kg/day
- NOAEL (mouse [2]; [14]): < 213 mg/kg/day
- LEL (mouse [2]; [15]): 213 mg/kg/day
- NEL (mouse [2]; [15]): < 213 mg/kg/day

Compound: O=C([O-])CNCO.[Na+] [Glycine, N-(hydroxymethyl)-, monosodium salt]
- LOAEL (rat [3]; [16]): 640 mg/kg/day
- NOAEL (rat [3]; [16]): 160 mg/kg/day
- LEL (rat [3]; [17]): 40 mg/kg/day
- NEL (rat [3]; [17]): < 40 mg/kg/day

Compound: CC(CO)OC(C)CO.CC(O)COCC(C)O (stereo unspecified) [Dipropylene glycol]
- LEL (rat [4]; [18]): 5000 mg/kg/day
- LOAEL (rat [4]; [18]): > 5000 mg/kg/day
- NEL (rat [4]; [18]): 2000 mg/kg/day
- NOAEL (rat [4]; [18]): ≥ 5000 mg/kg/day
- LEL (rat [4]; [19]): 2000 mg/kg/day
- LOAEL (rat [4]; [19]): > 5000 mg/kg/day
- NEL (rat [4]; [19]): 800 mg/kg/day
- NOAEL (rat [4]; [19]): ≥ 5000 mg/kg/day
- LOAEL (rat [5]; systemic / pathology microscopic / kidney / hyperplasia + systemic / pathology microscopic / kidney / nephropathy): 470 mg/kg/day
- NEL (rat [5]; [20]): 115 mg/kg/day
- NOAEL (rat [5]; [20]): 115 mg/kg/day
- LEL (rat [5]; systemic / pathology microscopic / kidney / hyperplasia + systemic / pathology microscopic / kidney / nephropathy + systemic / pathology …): 470 mg/kg/day
- LEL (mouse [6]): 1950 mg/kg/day
- LOAEL (mouse [6]): 1950 mg/kg/day
- NEL (mouse [6]): 1040 mg/kg/day
- NOAEL (mouse [6]): 1040 mg/kg/day
- LEL (rat [7]; [21]): 425 mg/kg/day
- NEL (rat [7]; [21]): < 425 mg/kg/day
- LOAEL (rat [7]; [22]): 8950 mg/kg/day
- NOAEL (rat [7]; [22]): 3340 mg/kg/day
- LOAEL (rat [8]; systemic / in life observation / body weight / body weight + systemic / in life observation / body weight / body weight gain): 11100 mg/kg/day
- NOAEL (rat [8]; systemic / in life observation / body weight / body weight + systemic / in life observation / body weight / body weight gain + systemic / in…): 5420 mg/kg/day
- LEL (rat [8]; systemic / organ weight / liver / absolute + systemic / organ weight / liver / relative to body weight): 2650 mg/kg/day
- NEL (rat [8]; systemic / organ weight / liver / absolute + systemic / organ weight / liver / relative to body weight + systemic / in life observation / …): 1450 mg/kg/day
- LEL (mouse [9]; [23]): 14700 mg/kg/day
- LOAEL (mouse [9]; [23]): > 14700 mg/kg/day
- NEL (mouse [9]; [23]): 7430 mg/kg/day
- NOAEL (mouse [9]; [23]): ≥ 14700 mg/kg/day
- LOAEL (mouse [9]; [24]): > 11000 mg/kg/day
- NOAEL (mouse [9]; [24]): ≥ 11000 mg/kg/day
- LEL (mouse [9]; [25]): 715 mg/kg/day
- NEL (mouse [9]; [25]): < 715 mg/kg/day
- LOAEL (mouse [10]; systemic / in life observation / body weight / body weight gain): 10700 mg/kg/day
- LEL (mouse [10]; [26]): 10700 mg/kg/day
- NOAEL (mouse [10]; [26]): 5330 mg/kg/day
- NEL (mouse [10]; systemic / in life observation / clinical signs / abnormal gait + systemic / in life observation / clinical signs / emaciation + systemic / …): 5330 mg/kg/day

Compound: c1ccc2c(c1)Oc1ccccc1[As]2O[As]1c2ccccc2Oc2ccccc21 [10,10'-Oxybisphenoxarsine]
- LOAEL (rat [11]; [27]): > 30 mg/kg/day
- NOAEL (rat [11]; [27]): ≥ 30 mg/kg/day
- LEL (rat [11]; [28]): 0.3 mg/kg/day
- NEL (rat [11]; [28]): < 0.3 mg/kg/day

Compound: CC(=O)CCc1ccc(O)cc1 [4-(4-Hydroxyphenyl)butan-2-one]
- LOAEL (rat [12]; [29]): > 678 mg/kg/day
- NOAEL (rat [12]; [29]): ≥ 678 mg/kg/day
- LEL (rat [12]; [30]): 65 mg/kg/day
- NEL (rat [12]; [30]): < 65 mg/kg/day
